One series deals with human pancreatic cancer. Particulars: regimen that includes gemcitabine; cited from earlier work.
A short description of series [1]: stability testing of CX-01 infusion solutions. It is filed as physicochemical. Particulars: room temperature; diluted in 0.9% sodium chloride. The method, then: Based upon current stability testing data, CX-01 infusion solutions expire at room temperature 72 hours after preparation and should be stored in a refrigerator (2 to 8° C.) until used.
The subject of series [2] is acute myeloid leukemia (AML). Briefly: single arm open-label clinical study of ODSH with idarubicin + cytarabine induction (NCT02056782). In kind it is in vivo, human. The procedure:
A single arm open-label clinical study was conducted at multiple trial sites (University of Utah, Georgia Regents University, and Medical University of South Carolina) in patients with newly diagnosed acute myeloid leukemia (AML) to confirm that ODSH could accelerate platelet and white blood cell (WBC) recovery in patients receiving induction chemotherapy with a regimen known to have myelosuppressive side effects.
All patients received the following standard (“7+3”) induction regimen, • Idarubicin (12 mg/m^2/day) by short intravenous infusion on Days 1, 2, and 3; and • Cytarabine (100 mg/m^2) as a continuous intravenous infusion over 24 hours (Days 1 through 7).
All patients also received CX-01, a substantially 2-O, 3-O-desulfated heparin derivative (ODSH) as an intravenous bolus immediately after the idarubicin dose on Day 1, at a dose of 4 mg/kg, followed by a continuous intravenous infusion at a dose of 0.25 mg/kg/hr for a total of 7 days (Days 1 through 7).
Twelve patients were enrolled. The median age was 56 (range 22-74). Based on cytogenetic, molecular, or antecedent hematologic disorder, 9 of 12 patients fell into the intermediate or poor risk categories. […] Complete remission at the end of the induction cycle was assessed using International Working Group (IWG) criteria (see, e.g., Cheson et al., J. Clin. Oncol. 21:4642 (2003)).
Platelet, neutrophil, and WBC recovery of the ODSH-treated AML patients was compared with the recovery in historical control patients receiving identical doses of idarubicin and cytarabine as induction therapy in a previous clinical study comparing idarubicin and daunorubicin in combination with cytarabine (Vogler et al., J. Clin. Oncol. 10(7):1103-11(1992)). In the previous study, 101 patients received idarubicin 12 mg/m^2 on days 1, 2, and 3 and cytarabine 100 mg/m^2 on days 1-7. Growth factors were not administered to any patient.

Series [3] can be described thus: clotting time in an aPTT assay after administration to a subject. In kind it is in vivo. Particulars: ODSH at a dose equivalent in weight to a fully-anticoagulating dose of unfractionated heparin; UFH at fully anticoagulant dose; normal about 27 to 35 seconds. From the text: In contrast to unfractionated heparin, ODSH is substantially non-anticoagulating: administered to a subject at a dose that is equivalent in weight to a fully-anticoagulating dose of unfractionated heparin, the clotting time measured in an aPTT assay is no greater than 45 seconds, and typically in the upper range of normal, where normal clotting time ranges from about 27 to 35 seconds. By comparison, unfractionated heparin administered to a subject at a fully anticoagulant dose causes time to clot to range from about 60 to about 85 seconds in an aPTT assay.

Series [4] concerns metastatic adenocarcinoma of the pancreas. Particulars: cited from earlier work.
Another series concerns the target anti-thrombin III (Homo sapiens, UniProt P01008). The experiment in a line: affinity for anti-thrombin III. It is filed as binding. Particulars: for Kd: measured as described in Rao et al.; for Kd for anti-thrombin III: same Kd as mass concentration.
The test system of another series is bone marrow. The experiment in a line: serial bone marrow biopsies in the AML trial. In kind it is in vivo, human. Particulars: one patient treated with ODSH, cytarabine and idarubicin; for bone marrow biopsy appearance at Day 14 of the induction cycle: FIG. 2B; for bone marrow biopsy appearance at Day 28: FIG. 2C. From the text: Bone marrow biopsies were obtained in the AML, trial described in Example 1.
FIGS. 2A-2C are photomicrographs of biopsies from one of the patients.

The test system of another series is ovarian cancer. Particulars: with standard chemotherapy regimen; cited from earlier work.
Series [5] has as its system advanced pancreatic cancer. Particulars: dalteparin added to gemcitabine; cited from earlier work.
Series [6] concerns advanced prostate, lung, or pancreatic cancer. Particulars: added to existing standard of care protocols; cited from earlier work.
The next series concerns the target IIa (Homo sapiens, UniProt P00734+P01008). Particulars: comparator heparin; Rao et al.; cited from earlier work.
For another series, the system named is pancreatic cancer model. Particulars: in vivo; cited from earlier work.
The target in the next series is T1, Xa (Homo sapiens, UniProt P00742).
T1 construct: an assay carried out using plasma treated with Russell viper venom; from tissue; host or cells: plasma
Particulars: comparator heparin; Rao et al.; cited from earlier work.

The conditions of series [7]: comparator heparin; Rao et al.; cited from earlier work.
Setting [8] is: median follow-up of 14.2 months.
The mark [9] stands for this setting: ODSH added to gemcitabine plus nab-paclitaxel.

The values that follow come from patent US10052346B2, “Treatment of myelodysplastic syndromes with 2-O and,or 3-O desulfated heparinoids” (Cantex Pharmaceuticals, Inc., priority 2015, dated 2018).

“Also recorded” adds a separate entry of the source. Where only a bound is given, the exact number is not on record here.

Sequence of anti-thrombin III (P01008 33-464, species assumed): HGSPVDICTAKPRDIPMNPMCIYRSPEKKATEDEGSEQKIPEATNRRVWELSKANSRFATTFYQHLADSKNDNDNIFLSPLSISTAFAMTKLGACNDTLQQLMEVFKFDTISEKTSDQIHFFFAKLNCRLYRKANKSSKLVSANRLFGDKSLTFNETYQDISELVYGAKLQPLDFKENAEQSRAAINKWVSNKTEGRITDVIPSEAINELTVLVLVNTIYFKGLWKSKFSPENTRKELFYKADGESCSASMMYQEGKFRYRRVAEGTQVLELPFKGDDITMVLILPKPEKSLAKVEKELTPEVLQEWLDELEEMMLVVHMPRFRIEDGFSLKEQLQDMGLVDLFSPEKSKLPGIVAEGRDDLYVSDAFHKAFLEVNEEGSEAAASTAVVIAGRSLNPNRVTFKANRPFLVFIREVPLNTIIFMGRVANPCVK
T1 sequence (P01008 33-464 partner): as the sequence (P01008 33-464, species assumed) above
T1 sequence (P00742 235-488 limits assumed): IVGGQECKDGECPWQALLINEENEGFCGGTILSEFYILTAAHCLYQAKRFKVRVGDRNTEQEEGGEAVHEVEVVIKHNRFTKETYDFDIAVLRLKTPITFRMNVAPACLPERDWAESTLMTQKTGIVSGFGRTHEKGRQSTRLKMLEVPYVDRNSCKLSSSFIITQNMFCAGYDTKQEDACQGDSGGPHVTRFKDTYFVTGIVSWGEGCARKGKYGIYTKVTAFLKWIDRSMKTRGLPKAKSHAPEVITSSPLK

For orientation: Kd means the constant that tells how readily two partners part at equilibrium. High values mean weaker binding, low ones tighter binding. For “substantially 2-O, 3-O desulfated heparin [ODSH]”, in the series with human pancreatic cancer, the “efficacy of chemotherapy regimen in animal model” value was “improves the efficacy of a chemotherapy regimen; also recorded: sensitize cancer cells to chemotherapy”. Moreover, the “expiry of infusion solutions after preparation” value in [1] is 72 h. In addition, the “patients remaining in complete remission” value in series [2] (5-13 months after having been enrolled in the study) is listed as 10 of the 12. Moreover, the “patients with primary AML achieving complete remission at the end of a single induction cycle” value in [2] (11 patients with primary AML) was 11. Besides, in [2] (AML patients), the “myelosuppressive side effects of the idarubicin+cytarabine regimen” value is on record as “significantly attenuated the myelosuppressive side effects”. Moreover, in [2] (AML patients, n = 12, 11 out of 12), the “Complete response with first induction cycle (morphologic complete remission, IWG criteria)” value came to 92%. For the same substance, in series [2] (setting [8]), the “median OS” value is at least 13.6 months and the “median event free survival” value was 13.5 months. Also, in series [2] (six patients who relapsed), the “median time to relapse” value was 8 months. Moreover, the “clotting time measured in an aPTT assay” value in series [3] was at most 45 s. In series [4] (setting [9]), the overall survival result is “did not provide a statistically significant increase; also recorded: no statistically significant benefit” and the progression-free survival result is on record as “did not provide a statistically significant increase; also recorded: no statistically significant benefit”. Further, the “myelosuppressive side effects of the gemcitabine plus nab-paclitaxel regimen” value in series [4] (U.S. Pat. No. 8,734,804) was “attenuate the myelosuppressive side effects”. In addition, on anti-thrombin III, the equilibrium dissociation constant (Kd) was around 339 µM and the “Kd for anti-thrombin III” value is around 4000 µg/mL. Also, in the series with bone marrow, the “bone marrow biopsy appearance at Day 14 of the induction cycle” value is listed as “elimination of most normal bone marrow cells as well as leukemia cells”; the “bone marrow biopsy appearance at Day 28” value was “no evidence of leukemic cells and restoration of normal bone marrow appearance and function”. Further, in the series with bone marrow (listed as CX-01 ODSH), the “bone marrow biopsy appearance at Day 14 of the induction cycle” value is given as “significant depletion of normal bone marrow cells”; the “bone marrow biopsy appearance at Day 28” value is “no evidence of leukemia and restoration of normal bone marrow appearance and function”.

For the substance dalteparin, the outcome in the series on ovarian cancer is reported as “could not be shown to improve outcome”. Moreover, the survival entry in series [5] is reported as “no statistically significant improvement in survival”.

On to nadroparin, for which the survival benefit result in [6] is “no statistically significant survival benefit”.

Take unfractionated heparin: the anti-IIa activity at IIa is listed as 165-190 U/mg. Further, in the series with pancreatic cancer model, the potency of gemcitabine entry is listed as “enhances potency of gemcitabine”. The anti-Xa activity at Xa is reported as 165-190 U/mg. Moreover, in series [7], the “anticoagulant activity in the USP anticoagulant assay” value is listed as 165-190 U/mg. Moreover, on anti-thrombin III, the affinity, expressed as Kd, was 1.56 µM and the “Kd for anti-thrombin III” value came to 22 µg/mL.
